Results reported in PubChem BioAssay (NCI).
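Growth conditions: 96-well plates. Treatment: test compound, 48 hours, 5 concentrations. Analysis: linear interpolation between bracketing concentrations; unreached endpoints set to highest concentration. TGI: concentration producing complete growth inhibition.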 Where a SMILES comes first, the peptide text is derived from it. [ ]: non-standard residue; d: D form. Ac5c = NC1(C(=O)O)CCCC1

Assays:
Experiment in all cases: inhibition of tumour cell growth, NCI panel, 48 h
[1] = test system: PC-3 prostate
[2] = test system: 786-0 renal
[3] = test system: NCI-H460 lung
[4] = test system: HCT-15 colon
[5] = test system: UO-31 renal
[6] = test system: HCT-116 colon
[7] = test system: HCC-2998 colon
[8] = test system: M14 melanoma
[9] = test system: RPMI-8226 leukemia
[10] = test system: SR leukemia
[11] = test system: CCRF-CEM leukemia
[12] = test system: COLO 205 colon
[13] = test system: SF-268 CNS
[14] = test system: IGROV1 ovarian
[15] = test system: HL-60(TB) leukemia
[16] = test system: KM12 colon
[17] = test system: SN12C renal
[18] = test system: SK-MEL-28 melanoma
[19] = test system: HOP-62 NSCLC
[20] = test system: MDA-MB-231 breast
[21] = test system: HS 578T breast
[22] = test system: ACHN renal
[23] = test system: SK-MEL-5 melanoma
[24] = test system: MDA-N
[25] = test system: SNB-19 CNS
[26] = test system: SK-OV-3 ovarian
[27] = test system: MOLT-4 leukemia
[28] = test system: K-562 leukemia
[29] = test system: HT29 colon
[30] = test system: MCF7 breast
[31] = test system: T-47D breast
[32] = test system: TK-10 renal
[33] = test system: SF-295 CNS
[34] = test system: A549 NSCLC
[35] = test system: MDA-MB-435
[36] = test system: SW-620 colon
[37] = test system: SNB-75 CNS
[38] = test system: EKVX NSCLC
[39] = test system: SF-539 CNS
[40] = test system: OVCAR-8 ovarian
[41] = test system: NCI-H522 lung
[42] = test system: UACC-257 melanoma
[43] = test system: OVCAR-5 ovarian
[44] = test system: U251 CNS
[45] = test system: NCI-H23 lung
[46] = test system: LOX IMVI melanoma
[47] = test system: NCI-H226 lung
[48] = test system: SK-MEL-2 melanoma
[49] = test system: MALME-3M melanoma
[50] = test system: CAKI-1 renal
[51] = test system: RXF 393 renal
[52] = test system: A498 renal
[53] = test system: HOP-92 NSCLC
[54] = test system: OVCAR-3 ovarian
[55] = test system: NCI/ADR-RES ovarian

## COC(=O)C1(NC(=O)C(C)NC(=O)C(CCCCN)NC(=O)C(CC(C)C)NC(C)=O)CCCC1 (stereo not given) (Ac-LKA[Ac5c]-OMe; configuration not given here)
[1]
  TGI: > 100 µM
[2]
  TGI: > 100 µM
[3]
  TGI: > 100 µM
[4]
  TGI: > 100 µM
[5]
  TGI: > 100 µM
[6]
  TGI: > 100 µM
[7]
  TGI: > 100 µM
[8]
  TGI: > 100 µM
[9]
  TGI: > 100 µM
[10]
  TGI: > 100 µM
[11]
  TGI: > 100 µM
[12]
  TGI: > 100 µM
[13]
  TGI: > 100 µM
[14]
  TGI: > 100 µM
[15]
  TGI: > 100 µM
[16]
  TGI: > 100 µM
[17]
  TGI: > 100 µM
[18]
  TGI: > 100 µM
[19]
  TGI: > 100 µM
[20]
  TGI: > 100 µM
[21]
  TGI: > 100 µM
[22]
  TGI: > 100 µM
[23]
  TGI: > 100 µM
[24]
  TGI: > 100 µM
[25]
  TGI: > 100 µM
[26]
  TGI: > 100 µM
[27]
  TGI: > 100 µM
[28]
  TGI: > 100 µM
[29]
  TGI: > 100 µM
[30]
  TGI: > 100 µM
[31]
  TGI: > 100 µM
[32]
  TGI: > 100 µM
[33]
  TGI: > 100 µM
[34]
  TGI: > 100 µM
[35]
  TGI: > 100 µM
[36]
  TGI: > 100 µM
[37]
  TGI: > 100 µM
[38]
  TGI: > 100 µM
[39]
  TGI: > 100 µM
[40]
  TGI: > 100 µM
[41]
  TGI: > 100 µM
[42]
  TGI: > 100 µM

## C/C(=N\NC(=O)c1ccncc1)c1cccc(F)c1
[43]
  TGI: > 10 µM
[1]
  TGI: > 10 µM
[2]
  TGI: > 10 µM
[44]
  TGI: > 10 µM
[45]
  TGI: > 10 µM
[3]
  TGI: > 10 µM
[4]
  TGI: > 10 µM
[5]
  TGI: > 10 µM
[6]
  TGI: > 10 µM
[7]
  TGI: > 10 µM
[8]
  TGI: > 10 µM
[46]
  TGI: > 10 µM
[47]
  TGI: > 10 µM
[9]
  TGI: > 10 µM
[10]
  TGI: > 10 µM
[48]
  TGI: > 10 µM
[11]
  TGI: > 10 µM
[12]
  TGI: > 10 µM
[13]
  TGI: > 10 µM
[14]
  TGI: > 10 µM
[15]
  TGI: > 10 µM
[16]
  TGI: > 10 µM
[17]
  TGI: > 10 µM
[49]
  TGI: > 10 µM
[50]
  TGI: > 10 µM
[18]
  TGI: > 10 µM
[19]
  TGI: > 10 µM
[51]
  TGI: > 10 µM
[22]
  TGI: > 10 µM
[23]
  TGI: > 10 µM
[24]
  TGI: > 10 µM
[25]
  TGI: > 10 µM
[26]
  TGI: > 10 µM
[27]
  TGI: > 10 µM
[28]
  TGI: > 10 µM
[30]
  TGI: > 10 µM
[31]
  TGI: > 10 µM
[32]
  TGI: > 10 µM
[33]
  TGI: > 10 µM
[34]
  TGI: > 10 µM
[52]
  TGI: > 10 µM
[36]
  TGI: > 10 µM
[37]
  TGI: > 10 µM
[53]
  TGI: > 10 µM
[54]
  TGI: > 10 µM
[39]
  TGI: > 10 µM
[40]
  TGI: > 10 µM
[55]
  TGI: > 10 µM
